Test results taken from BindingDB's records for patent US12497392 (Hinova Pharmaceuticals, 2025).

Key:
[1] = molecular target: T1, Histone acetyltransferase p300 [1049-1156] (UniProt Q09472); assay: Inhibitory Activity of Compounds on the Bromodomain (BRD) of CBP/EP300
T1 construct: 1049-1156
T1 sequence (Q09472 whole entry): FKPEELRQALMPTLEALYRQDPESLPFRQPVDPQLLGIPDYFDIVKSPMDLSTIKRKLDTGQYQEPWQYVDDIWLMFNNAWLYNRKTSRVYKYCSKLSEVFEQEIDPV
Method: (§1) A. Experimental MethodCBP and EP300AlphaScreen Test:1. Prepare 1× concentration of test buffer2. Preparation of compoundThe compound was firstly diluted in a ratio of 1:1000 relative to the final concentration using a Precision automatic sampler (by 3× gradient dilution method):1) 50 μL of compound solution with a storage concentration of 10 mM was transferred to A2 well of a 96-well plate using an Echo automatic sampler.2) 30 μL of DMSO was transferred to well A1, and wells A3 to A12 with Precision™.3) 15 μL solution was transferred from A2 to A3 by Precision, and this operation was sequentially repeated until 15 μL solution was transferred from well A10 to well A11. Thus, a 1:3 gradient dilution was completed.4) The compound plate was centrifuged at a speed of 1000 r/min for one minute.3. Preparation of test plate20 nL of solution was transferred from each concentration well of the compound plate to the test plate using an Echo automatic sampler: from well A1 of the preparation plate to wells A1 and A2 of the test plate, and from well A2 of the preparation plate to wells A3 and A4 of the test plate.4. Binding test of bromodomain (BRD)1) Preparation of 2-fold solution of protein and polypeptideThe protein and polypeptide were dissolved in a 1× concentration of detection buffer.2) 10 μL of protein and polypeptide solution was transferred to each well in columns 3 to 24 in the test plate, and 10 μL of 1× test buffer was transferred to wells in columns 1 to 2 in the test plate as negative control.3) The test plate was centrifuged at a speed of 1000 r/min for one minute.4) The test plate was incubated at room temperature for 15 min.5) A 2-fold receptor and donor solution was prepared by dissolving acceptor and donor beads with one-fold test buffer.6) 2-fold receptor and donor solutions were transferred to the test plate.15 μL of acceptor and donor solution was added and light was avoided.7) The test plate was centrifuged at a speed of 1000 r/min for one minute and then incubated at room temperature for 60 min.5. The Endpoints were Read in EnSpire and Alpha Modes.6. Curve fitting

[2] = molecular target: T2, CREB-binding protein [1085-1192] (UniProt Q92793); assay: as above
T2 construct: 1085-1192
Method: as §1

T2 sequence (Q92793 1085-1192): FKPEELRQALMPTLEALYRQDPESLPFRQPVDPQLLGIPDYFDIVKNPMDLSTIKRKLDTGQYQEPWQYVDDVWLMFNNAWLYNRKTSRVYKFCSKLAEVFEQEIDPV

IC50 [1] [nM] | IC50 [2] [nM] | Compound
2.2 | 4.8 | CO[C@H]1CC[C@H](n2c([C@@H]3CCOCC(=O)N3C3=CC(F)C(F)C=C3)nc3cc(C4C(C)=NOC4C)ccc32)CC1 (stereo partly specified) [US12497392, Compound 106]
9.6 | 22 | COc1cccc(-c2nc3cc(C4C(C)=NOC4C)ccc3n2[C@H]2CC[C@H](OC)CC2)c1C1=CC(F)C(F)C=C1 (stereo partly specified) [US12497392, Compound 141]
2.7 | 4.7 | CO[C@H]1C[C@@H](n2c([C@@H]3CCOC(=O)N3C3=CC(F)C(F)C=C3)nc3cc(C4C(C)=NOC4C)ccc32)C1 (stereo partly specified) [US12497392, Compound 143]
